We go through two compounds from patent US20130245110A1, “USE FOR CANNABINOIDS” (priority 2008, published 2013).

Values joined by “and” are separate entries in the source; they are usually repeats but may differ in a detail not shown here. Equal entries are not always repeated.

The test system of assay [1] is C57B1/Ks db/db mouse. The experiment in a line: Plasma insulin concentration. It counts as in vivo. Conditions: db/db mice. The method, then: Inflammation is also a feature of type II diabetic animals and man. […] However, as a result of the C57B1/Ks genetic background rather than the C57B1/6, the mice show loss of pancreatic function from around 6/7 weeks of age and by 10 weeks show frank diabetes.
The mice were given chow diet (Bantin and Kingman, no 1 diet) and water ad lib. The mice were kept under controlled lighting conditions (lights on 08.00 h, 12 h light/12 h dark) and at a room temperature of 21°±1° C.
• Daily: Food and water intake • Twice weekly: Body weight and glucose • Day 1: Weigh mice, dose compounds, provide measured amount of food, provide measured amount of water • Days 2, 5 and 8: Fed blood glucose concentration • Day 9: Oral glucose tolerance • Days 12 and 16: Fed blood glucose concentration • Day 19: 24 hr glycaemic assay • Days 22, 26 and 29: Fed blood glucose concentration • Day 33: 24 hr glycaemic assay • Day 38: Fed blood glucose concentration • Day 39: Body composition by Dexascan in anaesthetised mice • Day 41: Termination. Take blood samples for glucose, free fatty acids, triglycerides, cholesterol, insulin and HbA

Assay [2] addresses T1, PPARγ (Homo sapiens, UniProt P37231).
T1 construct: expressed in transfected cells
T1 sequence (P37231 1-505): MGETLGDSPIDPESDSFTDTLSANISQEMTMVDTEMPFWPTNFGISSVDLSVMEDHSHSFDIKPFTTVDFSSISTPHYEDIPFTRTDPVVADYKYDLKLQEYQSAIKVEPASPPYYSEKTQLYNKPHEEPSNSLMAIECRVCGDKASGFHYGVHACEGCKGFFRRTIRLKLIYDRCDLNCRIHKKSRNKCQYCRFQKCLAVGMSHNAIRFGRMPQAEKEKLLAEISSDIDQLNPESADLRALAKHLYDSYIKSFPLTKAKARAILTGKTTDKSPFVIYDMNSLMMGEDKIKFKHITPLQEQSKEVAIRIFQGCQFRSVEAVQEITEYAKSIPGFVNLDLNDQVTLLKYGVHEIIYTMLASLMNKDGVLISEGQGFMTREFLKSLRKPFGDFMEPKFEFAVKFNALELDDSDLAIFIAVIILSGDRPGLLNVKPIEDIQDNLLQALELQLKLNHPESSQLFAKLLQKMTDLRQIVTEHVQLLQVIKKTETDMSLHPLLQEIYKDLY
T1 sequence (P19793 1-462 partner): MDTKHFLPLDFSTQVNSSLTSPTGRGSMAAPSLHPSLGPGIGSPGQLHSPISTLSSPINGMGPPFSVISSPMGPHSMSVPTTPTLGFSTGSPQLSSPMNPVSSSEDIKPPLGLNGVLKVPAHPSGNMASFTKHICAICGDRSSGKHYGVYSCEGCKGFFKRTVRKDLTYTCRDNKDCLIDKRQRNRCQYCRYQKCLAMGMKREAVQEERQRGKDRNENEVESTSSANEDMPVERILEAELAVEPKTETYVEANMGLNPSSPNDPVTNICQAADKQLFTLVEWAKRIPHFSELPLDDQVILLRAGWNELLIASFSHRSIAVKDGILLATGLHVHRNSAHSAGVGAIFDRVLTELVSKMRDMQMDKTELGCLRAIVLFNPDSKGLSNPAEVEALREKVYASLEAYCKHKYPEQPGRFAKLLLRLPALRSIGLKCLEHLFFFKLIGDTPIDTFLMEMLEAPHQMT
Kind of assay: Transcriptional transactivation assay (luciferase reporter gene 3xPPRE TK luc). The note with it: any concentration tested. The assay is classed as cell-based. The method, then:
In vitro vascular studies were carried out in rat isolated aortae by wire myography. PPARγ activation was investigated using reporter gene assays, a PPARγ competition-binding assay and an adipogenesis assay.
Background: Reporter assays use an easily measured gene product as a stand-in for the process of interest.

The subject of assay [3] is C57B1/6 ob/ob mouse. Kind of assay: Liver triglyceride. The assay is classed as in vivo. Conditions: ob/ob mice, at termination, individual values. The method, then:
Blood samples were also taken at −30 minutes for insulin analysis. • e) Blood Glucose analysis: Duplicate 20 μl samples of blood of were taken for each individual sample and placed in a 96-well assay plate. To each well was added 180 μl aliquots of glucose oxidase reagent. Samples were mixed and then left for approximately 30 minutes. Samples were then analysed automatically using a SpectraMax-250 and SoftMax Pro software. • f) Plasma preparation: Blood was collected for the measurement of i) plasma insulin, ii) cholesterol, iii) free fatty acids or iv) triglyceride concentration. • i. Plasma insulin analysis: Plasma insulin was measured using 5 μl of plasma, compared with a mouse insulin standard using a 96-well micro-assay plate • ii. Plasma cholesterol analysis: To each sample was added 200 μl of infinity cholesterol liquid stable reagent. The samples were mixed and incubated for 5 minutes before reading at dual wavelengths of 500 and 660 nm. • iii. Plasma free fatty acids: 5 μl samples of plasma were measured into a 96-well assay plate, to which was added 0.2 ml of reagents NEFA C • iv. […] Dedicated software was using to quantify amounts of bone and fat. The mice were lightly anaesthetised, sufficient to keep them quiescent during this non-invasive technique. • h) Energy expenditure measurements: Energy expenditure was measured by open circuit indirect calorimetry with mice in their home cages. […] Plasma leptin was measured in fed mice using the Crystal Chem Elisa assay. • j) Plasma adiponectin: Adiponectin exerts some of its weight reduction effects via the brain. […] Plasma adiponectin was measured in overnight fasted mice using the 96-well B-Bridge Elisa assay. • k) Plasma HDL-cholesterol: Plasma HDL-cholesterol was measured in fed mice using the kit from Trinity Biotech. • l) 24 h blood glucose profile: This was determined in order to ensure that changes in the diurnal control of blood glucose were detected. Thus blood samples were obtained at three hourly intervals throughout a continuous 24 h period. • m) Plasma haemoglobin AIC: Samples (10 μl) were analysed using the AIC. […]

On to `C=C(C)[C@@H]1CCC(C)=C[C@H]1c1c(O)cc(CCCCC)cc1O` [CBD, cannabidiol], for which, in assay [1], the “Plasma insulin during the 24 h glucose profiles” value is “no consistent effect was seen”.

Take `CCCc1cc(O)c2c(c1)OC(C)(C)[C@@H]1CCC(C)=C[C@@H]21` [THCV, tetrahydrocannabivarin]: the PPARγ transcriptional activity entry in assay [2] is on record as “no effect”. Besides, the Liver triglycerides concentration in assay [3] (0.3 mg·kg−1 daily oral gavage (combination: both 0.3)) was 17.16 and 11.16 and 14.94 and 15.48 and 9.10 and 16.72 and 9.33 and 14.97; in assay [3] (0.3 mg·kg−1 daily oral gavage (combination: both 0.3), listed as pure THCV), “increased”; in assay [3] (3.0 mg·kg−1 daily oral gavage (combination: both 3.0)) it was 8.70 and 15.20 and 10.77 and 9.78 and 12.06 and 13.92 and 18.27 and 14.09.
